From patent publication US20030083483A1, “Molecular interaction sites of vimentin RNA and methods of modulating the same” (priority 1999, published 2003)
“Also recorded” adds a separate entry of the source.

What was measured:
[1] = tested on: 27-mer RNA corresponding to the 16S rRNA A site containing 3 dA residues; experiment: MS-MS CID/CAD protection assay on chimeric 27-mer RNA/DNA; assay type: binding, prokaryotic; conditions: same activation energy as free RNA
Text: In order to study the binding of paromomycin to the RNA of Example 20, the chimeric RNA/DNA molecule of Example 20 was synthesized using standard automated nucleic acid synthesis protocols on an automated synthesizer. A sample of this nucleic acid was then subjected to ESI followed by CID in a mass spectrometer to afford the fragmentation pattern indicating a lack of structure at the sites of dA incorporation, as described in Example 20. This indicated the accessibility of these dA sites in the structure of the chimeric nucleic acid.
Next, another sample of the chimeric nucleic acid was treated with a solution of paromomycin and the resulting mixture analyzed by ESI followed by CID using a mass spectrometer. […] This was also indicative of binding of the paromomycin to the chimeric nucleic acid, because of the increased mass of the observed ion complex. Further, there was also observed, a shift in the distribution of the multiply charged ion complexes which reflected a change in the conformation of the nucleic acid in the paromomycin-nucleic acid complex into a more compact structure. […]
The mass spectrum obtained from a 5 μM solution of C mixed with 125 nM paromomycin contains [M-5H]^5− ions from free C at m/z 1783.6 and the [M-5H]^5− ions of the paromomycin-C complex at m/z 1907.3. […] Signals from the [M-4H]^4− ions of C and the complex are detected at m/z 2229.8 and 2384.4, respectively. […]

16S A-site RNA = conditions: previously reported / solution value for 16S A site; read-out: literature Kd; cited from earlier work

Q: For `NC[C@@H]1O[C@H](O[C@H]2[C@@H](O)[C@H](O[C@@H]3[C@@H](O)[C@H](N)C[C@H](N)[C@H]3O[C@H]3O[C@H](CO)[C@@H](O)[C@H](O)[C@H]3N)O[C@@H]2CO)[C@H](N)[C@@H](O)[C@@H]1O` [Paromomycin], which “fragmentation at the dA sites of the ligand-RNA complex on CID/CAD” value [1] is on record?
A: no fragmentation at the dA sites; also recorded: No cleavage was found to occur; also recorded: No significant fragment ions are observed; also recorded: no fragment ions are detected

Q: What about the Kd (16S A-site RNA) of the same compound?
A: 200 nM
